Assay results: patent publication EP0091090A2, “Bipyridine substituted imidazolidene copper complex and its use in food-producing animals, and bipyridine, 2,2'-(2-imidazolidinylidene) di-copper complex and use in animals” (INTERNATIONAL MINERALS & CHEMICAL CORPORATION, priority 1982, dated 1983)

System: rumen fluid batch culture
Experiment: Rumen fluid batch culture test: volatile fatty acid, gas (CH4 + H2), protein and amino acid accumulation (Example 2)
Format: cell-based, steers
Design: HFo (formate) / HAc (acetate) / HPr (propionate) / HiBu (isobutyrate) / HBu (butyrate) / HiVal (isovalerate) / Total / Caloric Value of H2 / Caloric Value of HFo / Caloric Value of HAc / Caloric Value of HPr / Caloric Value of HiBu / Caloric Value of HBu / Caloric Value of HiVal / Caloric Value of CH3: unit not given here
Conditions: 8.33 µg/ml
Description: The above Formula IV composition was tested to determine its effectiveness as a feed additive for ruminants. The initial tests were in rumen fluid batch culture systems to determine the effect of the compound on volatile fatty acid/methane ratios (VFA/CH4). […] Test Procedure: A 50/50 mixture of ground corn and ground alfalfa was used as the substrate for the subject rumen fluid batch culture test. The compound (Formula IV ) was present in the rumen fluid in three separate test samples at 8.33, 25 and 75 ppm, respectively. On day 1, rumen fluid was obtained from mature fistulated steers on 50/50 concentrate/roughage diets. The rumen fluid (RF) was strained through three layers of gauze cloth and equilibrated with C02 gas. Wheaton serum vials (125 ml) were prepared ahead with 20 ml continuous batch buffer and 100 mg 50/50 ground corn/ground alfalfa. Controls and compounds (dissolved in acetone) were set up according to desired levels. The vials were kept under C02 gas until 20 ml of the strained RF was added. The vials were sealed and incubated at 39°C for 24 hours in a hot water bath. On successive days, gas samples (0.1 ml) were drawn for gas chromatography analysis before transferring 20 ml of the batch culture to another vial containing 20 ml of buffer, 100 mg substrate, and the corresponding compound. The remaining 20 ml was inoculated with 2 ml 6N HC1 and centrifuged at 15,000 rpm for 15 minutes. Ether extracts were prepared for volatile fatty acid (VFA) analysis. Some minor adjustments were made in the termperatures on the Hewlett-Packard 5750 Gas-Liquid Chromatograph used for VFA analysis when the glass column used was changed from 1/4 inch diameter to 1/8 inch diameter. Injection Port = 220°C Column Oven = 170°C Flame Detector = 250°C Only 4 minutes was needed to record the sample instead of the previous 7 minutes.

2,2'-(4,5-diphenyl-2H-imidazol-2-ylidene)bispyridine with CuCl2(1/1) [Formula IV Compound]
AA (day 2): 0.16 µmol/mL | CH4 (day 2): 204 µ Moles | H2 (day 2): 0 µ Moles | HAc (acetate) (day 2): 43.83 | HBu (butyrate) (day 2): 12.33 | HFo (formate) (day 2): 1.48 | HPr (propionate) (day 2): 11.81 | HiBu (isobutyrate) (day 2): 1.27 | HiVal (isovalerate) (day 2): 0 | Protein (day 2): 0 mg/mL | Total (day 2): 70.71 | AA (day 3): 0.13 µmol/mL | CH4 (day 3): 157 µ Moles | H2 (day 3): 0 µ Moles | HAc (acetate) (day 3): 33.35 | HBu (butyrate) (day 3): 9.87 | HFo (formate) (day 3): 0.92 | HPr (propionate) (day 3): 12.17 | HiBu (isobutyrate) (day 3): 1.14 | HiVal (isovalerate) (day 3): 1.14 | Protein (day 3): 0 mg/mL | Total (day 3): 58.58 | CH4 (day 4): 164 µ Moles | H2 (day 4): 0 µ Moles | HAc (acetate) (day 4): 34.54 | HBu (butyrate) (day 4): 7.77 | HFo (formate) (day 4): 0.40 | HPr (propionate) (day 4): 13.16 | HiBu (isobutyrate) (day 4): 0.68 | HiVal (isovalerate) (day 4): 2.01 | Total (day 4): 58.54 | CH4 (day 5): 181 µ Moles | H2 (day 5): 0 µ Moles | HAc (acetate) (day 5): 33.15 | HBu (butyrate) (day 5): 7.14 | HFo (formate) (day 5): 0.30 | HPr (propionate) (day 5): 12.66 | HiBu (isobutyrate) (day 5): 0.35 | HiVal (isovalerate) (day 5): 1.17 | Total (day 5): 54.76 | AA (day 6): 0.11 µmol/mL | CH4 (day 6): 176 µ Moles | H2 (day 6): 0 µ Moles | HAc (acetate) (day 6): 29.32 | HBu (butyrate) (day 6): 5.69 | HFo (formate) (day 6): 1.02 | HPr (propionate) (day 6): 11.08 | HiBu (isobutyrate) (day 6): 0.46 | HiVal (isovalerate) (day 6): 0 | Protein (day 6): 0 mg/mL | Total (day 6): 47.57 | AA (day 7): 0.11 µmol/mL | CH4 (day 7): 139 µ Moles | H2 (day 7): 0 µ Moles | HAc (acetate) (day 7): 29.53 | HBu (butyrate) (day 7): 4.39 | HFo (formate) (day 7): 0.73 | HPr (propionate) (day 7): 13.12 | HiBu (isobutyrate) (day 7): 0.76 | HiVal (isovalerate) (day 7): 0.77 | Protein (day 7): 0 mg/mL | Total (day 7): 49.29 | AA (day 8): 0.09 µmol/mL | CH4 (day 8): 158 µ Moles | H2 (day 8): 0 µ Moles | HAc (acetate) (day 8): 26.19 | HBu (butyrate) (day 8): 5.49 | HFo (formate) (day 8): 0.55 | HPr (propionate) (day 8): 13.48 | HiBu (isobutyrate) (day 8): 0.65 | HiVal (isovalerate) (day 8): 2.20 | Protein (day 8): 0 mg/mL | Total (day 8): 48.55 | AA (day 9): 0.10 µmol/mL | CH4 (day 9): 157 µ Moles | H2 (day 9): 0 µ Moles | HAc (acetate) (day 9): 27.31 | HBu (butyrate) (day 9): 3.06 | HFo (formate) (day 9): 0.50 | HPr (propionate) (day 9): 13.73 | HiBu (isobutyrate) (day 9): 0.58 | HiVal (isovalerate) (day 9): 0.55 | Protein (day 9): 0 mg/mL | Total (day 9): 45.71 | AA (day 10): 0.24 µmol/mL | CH4 (day 10): 159 µ Moles | H2 (day 10): 0 µ Moles | HAc (acetate) (day 10): 24.52 | HBu (butyrate) (day 10): 2.56
